The test system of one experiment is UACC-254. Put plainly: NCI SRB screen, UACC-254. As to conditions: Homo sapiens, read-out: GI50 values.
For a further experiment, the system named is MDA-MB-468. Description: NCI SRB screen, MDA-MB-468. The following applies: Homo sapiens, MDA-MB-468, read-out: GI50 values.

This passage reports GI50 results from patent publication US9951049B2, “Pyrazole linked benzimidazole conjugates and a process for preparation thereof” (Council of Scientific & Industrial Reseach, priority 2014, dated 2018).

By GI50 is commonly meant the concentration at which growth is held to half of that of the control.

Each structure is given as a SMILES string.

For the compound `Fc1ccc2[nH]c(-c3cc(-c4ccc5c(c4)OCO5)n[nH]3)nc2c1` [7g, 2-(3-(benzo[d][1,3]dioxol-5-yl)-1H-pyrazol-5-yl)-5-fluoro-1H-benzo[d]imidazole], the GI50 in the experiment with UACC-254 is 1020 nM. With `COc1ccc2[nH]c(-c3cc(-c4cc(OC)c(OC)c(OC)c4)n[nH]3)nc2c1` [9f, 5-methoxy-2-(3-(3,4,5-trimethoxyphenyl)-1H-pyrazol-5-yl)-1H-benzo[d]imidazole], the GI50 with MDA-MB-468 came out at 380 nM.
